Assay results reported in US11590116B2 (THERAVANCE BIOPHARMA R&D IP, LLC, priority 2019, dated 2023).

Assays:
[1] = test system: TGF-β-stimulated SMAD3 phosphorylation in BEAS-2B cells; test: Cellular ALK5 potency assay, inhibition of TGF-β stimulated pSMAD3 formation in BEAS-2B cells; assay type: cell-based; details: Homo sapiens; inhibition of TGF-β stimulated pSMAD3 formation, BEAS-2B cells; read-out: BEAS2B pIC50 (converted)
In short: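 AlphaLISA pSMAD3 read-out, beads incubated overnight. Human BEAS-2B cells: 1 h compound preincubation (37 °C, 5% CO2), then 30 min TGF-β at 10 ng/mL final, immediate lysis. Values are pIC50 relative to stimulated, compound-free baseline.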

[2] = molecular target: T1, recombinant human ALK5 (TGF-βR1) protein (Homo sapiens, UniProt P36897); test: Biochemical ALK5 (TGF-βR1) assay to measure pKi (LANCE Ultra ULight kinase assay); details: apparent pKi from pIC50 by Cheng-Prusoff, read-out: ALK5 pKi (converted)
T1 construct: purchased Life Technologies PR9075A
T1 sequence (P36897 34-503): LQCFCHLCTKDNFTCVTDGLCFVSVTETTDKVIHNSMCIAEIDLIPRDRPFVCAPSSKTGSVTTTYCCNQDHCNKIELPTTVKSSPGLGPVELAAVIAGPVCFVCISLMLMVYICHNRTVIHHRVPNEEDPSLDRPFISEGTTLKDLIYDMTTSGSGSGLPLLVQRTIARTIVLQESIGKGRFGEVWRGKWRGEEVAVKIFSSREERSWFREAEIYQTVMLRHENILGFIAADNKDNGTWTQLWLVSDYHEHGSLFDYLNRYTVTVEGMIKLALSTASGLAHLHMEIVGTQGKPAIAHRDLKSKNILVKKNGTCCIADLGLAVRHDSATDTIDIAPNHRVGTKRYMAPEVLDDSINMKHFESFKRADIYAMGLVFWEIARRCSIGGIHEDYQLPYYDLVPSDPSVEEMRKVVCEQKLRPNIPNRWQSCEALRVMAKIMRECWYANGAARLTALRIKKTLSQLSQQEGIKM
In short: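 Dose range 10 μM–25 pM; enzyme + compound 60 min RT; ATP added (5× stock 125 μM, 2 mM DTT); 60 min 37 °C; stop with EDTA + Eu anti-phospho-Topo IIα Thr1342 Ab; TR-FRET ex 320/340, em 665 nm. 4-param pIC50 → pKi (Cheng-Prusoff).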

SMILES | IC50 [1] | Ki [2]
Cc1cccc(-c2c(-c3ccc4ncc(N5CCC(N6CCN(C)CC6)CC5)cc4c3)nnn2Cc2ccccc2)n1 [Compound 578, 6-[1-benzyl-5-(6-methyl-2-pyridyl)triazol-4-yl]-3-[4-(4-methylpiperazin-1-yl)-1-piperidyl]quinoline] | 1580 to 10000 nM | 3.98 to 31.6 nM
Cc1cccc(-c2[nH]cnc2-c2ccc3ncc(NC(=O)C4CNC4)cc3c2)n1 [Compound 579, N-[6-[5-(6-methyl-2-pyridyl)-1H-imidazol-4-yl]-3-quinolyl]azetidine-3-carboxamide] | 1580 to 10000 nM | 0.0398 to 0.316 nM
Cc1cccc(-c2n[nH]cc2-c2ccc3ncc(N4CCCNCC4)cc3c2)n1 [Compound 580, 3-(1,4-diazepan-1-yl)-6-[3-(6-methyl-2-pyridyl)-1H-pyrazol-4-yl]quinoline] | 25.1 to 158 nM | 0.0398 to 0.316 nM
Cc1cccc(-c2[nH]cnc2-c2ccc3ncc(-c4cccc(N5CCNCC5)c4)cc3c2)n1 [Compound 581, 6-[5-(6-methyl-2-pyridyl)-1H-imidazol-4-yl]-3-(3-piperazin-1-ylphenyl)quinoline] | 25.1 to 158 nM | < 0.0316 nM
COC(=O)c1coc(-c2cnc3ccc(-c4c[nH]nc4-c4cccc(C)n4)nc3c2)n1 [Compound 582, methyl 2-[6-[3-(6-methyl-2-pyridyl)-1H-pyrazol-4-yl]-1,5-naphthyridin-3-yl]oxazole-4-carboxylate] | 25.1 to 158 nM | < 0.0316 nM
Cc1cccc(-c2[nH]cnc2-c2ccc3ncc(N4CCC(NC(=O)C5CCNCC5)CC4)cc3c2)n1 [Compound 583, N-[1-[6-[5-(6-methyl-2-pyridyl)-1H-imidazol-4-yl]-3-quinolyl]-4-piperidyl]piperidine-4-carboxamide] | 1580 to 10000 nM | 0.0398 to 0.316 nM
Cc1cccc(-c2nnn(Cc3ccccc3)c2-c2ccc3ncc(NCCN4CCN(C(C)C)CC4)cc3c2)n1 [Compound 584, 6-[3-benzyl-5-(6-methyl-2-pyridyl)triazol-4-yl]-N-[2-(4-isopropylpiperazin-1-yl)ethyl]quinolin-3-amine] | 200 to 1260 nM | 0.0398 to 0.316 nM
Cc1cccc(-c2n[nH]cc2-c2ccc3ncc(-c4cccnc4O)cc3n2)n1 [Compound 585, 3-[6-[3-(6-methyl-2-pyridyl)-1H-pyrazol-4-yl]-1,5-naphthyridin-3-yl]pyridin-2-ol] | 25.1 to 158 nM | < 0.0316 nM
Cc1cccc(-c2n[nH]cc2-c2ccc3ncc(N4CC(C)(N(C)C)C4)cc3n2)n1 [Compound 586, N,N,3-trimethyl-1-[6-[3-(6-methyl-2-pyridyl)-1H-pyrazol-4-yl]-1,5-naphthyridin-3-yl]azetidin-3-amine] | 25.1 to 158 nM | < 0.0316 nM
Cc1cccc(-c2nc3ccccn3c2-c2ccc3ncc(-c4cnn5c4CNCC5)cc3n2)n1 [Compound 587, 2-(2-(6-methylpyridin-2-yl)imidazo[1,2-a]pyridin-3-yl)-7-(4,5,6,7-tetrahydropyrazolo[1,5-a]pyrazin-3-yl)-1,5-naphthyridine] | 25.1 to 158 nM | 0.0398 to 0.316 nM
Cc1cccc(-c2n[nH]cc2-c2ccc3ncc(C4=CCNC4)cc3n2)n1 [Compound 588, 7-(2,5-dihydro-1H-pyrrol-3-yl)-2-[3-(6-methyl-2-pyridyl)-1H-pyrazol-4-yl]-1,5-naphthyridine] | < 20 nM | 0.0398 to 0.316 nM
CNCCn1cc(-c2cnc3ccc(-c4c[nH]nc4-c4cccc(C)n4)cc3c2)cn1 [Compound 589, N-methyl-2-[4-[6-[3-(6-methyl-2-pyridyl)-1H-pyrazol-4-yl]-3-quinolyl]pyrazol-1-yl]ethanamine] | < 20 nM | < 0.0316 nM
Cc1cccc(-c2[nH]cnc2-c2ccc3ncc(C4=CCC(NCC5CCC(=O)O5)CC4)cc3c2)n1 (stereo not shown) [Compound 590, 5-[[[4-[6-[5-(6-methyl-2-pyridyl)-1H-imidazol-4-yl]-3-quinolyl]cyclohex-3-en-1-yl]amino]methyl]tetrahydrofuran-2-one] | 25.1 to 158 nM | 0.0398 to 0.316 nM
Cc1cccc(-c2n[nH]cc2-c2ccc3ncc(-c4ccc[nH]4)cc3n2)n1 [Compound 591, 2-[3-(6-methyl-2-pyridyl)-1H-pyrazol-4-yl]-7-(1H-pyrrol-2-yl)-1,5-naphthyridine] | < 20 nM | < 0.0316 nM
Cc1cccc(-c2nc3ccccn3c2-c2ccc3ncc(-c4cn[nH]c4)cc3c2)n1 [Compound 592, 6-[2-(6-methyl-2-pyridyl)imidazo[1,2-a]pyridin-3-yl]-3-(1H-pyrazol-4-yl)quinoline] | < 20 nM | < 0.0316 nM
Cc1cccc(-c2[nH]cnc2-c2ccc3ncc(NCCN(C)C4CNC4)cc3c2)n1 [Compound 593, N′-(azetidin-3-yl)-N′-methyl-N-[6-[5-(6-methyl-2-pyridyl)-1H-imidazol-4-yl]-3-quinolyl]ethane-1,2-diamine] | 200 to 1260 nM | 0.0398 to 0.316 nM
Cc1cccc(-c2[nH]cnc2-c2ccc3ncc(N)cc3c2)n1 [Compound 594, 6-[5-(6-methyl-2-pyridyl)-1H-imidazol-4-yl]quinolin-3-amine] | < 20 nM | 0.0398 to 0.316 nM
Cc1cccc(-c2n[nH]cc2-c2ccc3ncc(-c4cccnc4)cc3n2)n1 [Compound 595, 2-[3-(6-methyl-2-pyridyl)-1H-pyrazol-4-yl]-7-(3-pyridyl)-1,5-naphthyridine] | < 20 nM | < 0.0316 nM
Cc1cccc(-c2n[nH]cc2-c2ccc3ncc(-c4cc(C)nn4C)cc3n2)n1 [Compound 596, 7-(2,5-dimethylpyrazol-3-yl)-2-[3-(6-methyl-2-pyridyl)-1H-pyrazol-4-yl]-1,5-naphthyridine] | < 20 nM | < 0.0316 nM
Cc1cccc(-c2n[nH]cc2-c2ccc3ncc(NCCN4CCCC4)cc3n2)n1 [Compound 597, 6-[3-(6-methyl-2-pyridyl)-1H-pyrazol-4-yl]-N-(2-pyrrolidin-1-ylethyl)-1,5-naphthyridin-3-amine] | 25.1 to 158 nM | < 0.0316 nM
Cc1nc(-c2n[nH]cc2-c2ccc3ncc(-c4cnn(C(=O)OC(C)C)c4)cc3n2)ccc1F [Compound 599, isopropyl 4-[6-[3-(5-fluoro-6-methyl-2-pyridyl)-1H-pyrazol-4-yl]-1,5-naphthyridin-3-yl]pyrazole-1-carboxylate] | < 20 nM | < 0.0316 nM
COc1[nH]nc(-c2cccc(C)n2)c1-c1ccc2ncc(N)cc2n1 [Compound 600, 6-(5-methoxy-3-(6-methylpyridin-2-yl)-1H-pyrazol-4-yl)-1,5-naphthyridin-3-amine] | 25.1 to 158 nM | 0.0398 to 0.316 nM
CCOC(=O)CCN(C)c1cnc2ccc(-c3c[nH]nc3-c3cccc(C)n3)nc2c1 [Compound 601, ethyl 3-[methyl-[6-[3-(6-methyl-2-pyridyl)-1H-pyrazol-4-yl]-1,5-naphthyridin-3-yl]amino]propanoate] | 200 to 1260 nM | 3.98 to 31.6 nM
Cc1cccc(-c2[nH]nnc2-c2ccc3ncc(-c4cnn(C5CCCNC5)c4)cc3n2)n1 (stereo not shown) [Compound 602, 2-[5-(6-methyl-2-pyridyl)-1H-triazol-4-yl]-7-[1-(3-piperidyl)pyrazol-4-yl]-1,5-naphthyridine] | 200 to 1260 nM | < 0.0316 nM
Cc1nc(-c2[nH]cnc2-c2ccc3ncc(NCCN4CCCC4(C)C)cc3n2)ccc1F [Compound 603, N-[2-(2,2-dimethylpyrrolidin-1-yl)ethyl]-6-[5-(5-fluoro-6-methyl-2-pyridyl)-1H-imidazol-4-yl]-1,5-naphthyridin-3-amine] | 25.1 to 158 nM | < 0.0316 nM
Cc1cccc(-c2n[nH]cc2-c2ccc3ncc(-c4cn[nH]c4-c4cccc(C)n4)cc3n2)n1 [Compound 604, 2-[3-(6-methyl-2-pyridyl)-1H-pyrazol-4-yl]-7-[5-(6-methyl-2-pyridyl)-1H-pyrazol-4-yl]-1,5-naphthyridine] | 25.1 to 158 nM | 0.398 to 3.16 nM
CNCCn1cc(-c2cnc3ccc(-c4c(-c5cccc(C)n5)nn5cc(Cl)ccc45)cc3c2)cn1 [Compound 605, 2-[4-[6-[6-chloro-2-(6-methyl-2-pyridyl)pyrazolo[1,5-a]pyridin-3-yl]-3-quinolyl]pyrazol-1-yl]-N-methyl-ethanamine] | 200 to 1260 nM | 0.0398 to 0.316 nM
CNC1CCCN(c2cnc3ccc(-c4c[nH]nc4-c4cccc(C)n4)nc3c2)C1 (stereo not shown) [Compound 606, N-methyl-1-[6-[3-(6-methyl-2-pyridyl)-1H-pyrazol-4-yl]-1,5-naphthyridin-3-yl]piperidin-3-amine] | 25.1 to 158 nM | 0.0398 to 0.316 nM
Cc1cccc(-c2n[nH]cc2-c2ccc3ncc(C(N)=O)cc3n2)n1 [Compound 607, 6-[3-(6-methyl-2-pyridyl)-1H-pyrazol-4-yl]-1,5-naphthyridine-3-carboxamide] | 25.1 to 158 nM | 0.0398 to 0.316 nM
